B1: short-chain dehydrogenase/reductase from Burkholderia phymatum (enzyme)
chain: MFEFDGKVAVITGAGSGFGRAFAEKGASLGMKLVLADVDEGALARTVDTLRAAGAEVIGVRTDVSNGAQVQALADAALEAFGKVHLLFNNAGVGAGGFLWESSANDWAWVFGVNVMGVAHGVRVFAPIMLGQNEAAHIVNTASVAGLLSPPSMGIYNASKHAVVSLTETLYHDLRNAGGEVGCSLLCPAFVPTGIADAERVRPEALRNEAQPTRSQLAADRQLQRAVRSGKLGATDVATLTFEAIAERRFYILTHPAILATVRLRHEDIELQRNPTDPLSLKPEVKEAR
notes: short-chain dehydrogenase/reductase, Burkholderia phymatum STM815, UniProt B2JGP2, amino acids 1-289; Crystallised with 4 mM NAD; each monomer holds NAD and an acetate; 278 residues of each monomer are seen in the structure; also called BpSDR; SDR from B. phymatum; source: E. coli BL21(DE3), purified (IMAC, SEC); not shown: His6 (MAHHHHHH, noncleavable hexahistidine fusion tag from the vector …)

Assays:
[1] = biological target: T1, BpSDR (Paraburkholderia phymatum, UniProt B2JGP2); test: X-ray crystal structure, […] Å; conditions: co-crystallised with 4 mM NAD, pH 4.5-4.6, 14 °C; cofactor-binding domain; acetate from crystallisation solution in substrate site
T1 construct: gene Bphy_1038; residues 1-289, noncleavable N-terminal His6 tag (MAHHHHHHM-ORF), vector pBG1861, E. coli BL21(DE3); SEC monomer or dimer, prototypical SDR dimers by crystal symmetry

[2] = biological target: the molecule itself; test: crystal structure; space group C222(1), 1.80 A, three monomers in the asymmetric unit, with NAD and acetate; dimers generated by crystallographic symmetry

| Molecule | X-ray crystal structure, 1.80 Å [1] | binding result [2] |
| --- | --- | --- |
| NC(=O)c1ccc[n+]([C@@H]2O[C@H](COP(=O)(O)OP(=O)(O)OC[C@H]3O[C@@H](n4cnc5c(N)ncnc54)[C@H](O)[C@@H]3O)[C@@H](O)[C@H]2O)c1 [NAD] | each monomer having an acetate molecule in the substrate-binding domain and a NAD molecule |  |
| B1 |  | binds |

Source: paper PMC8805215, “Crystal structure of a short-chain dehydrogenase/reductase from Burkholderia phymatum in complex with NAD” (Acta Crystallographica. Section F, Structural Biology …, 2022)
